In assay [1] the test system is intact retinas from P12 wild type mice. The assay is described as follows: P12 mouse retinal explant culture, qPCR for rod gene expression. Particulars: P12 explants, 1 μM, 2 days, vs DMSO. The assay is classed as cell-based. The text has this:
To identify functional Nr2e3 antagonists, compounds were cheminformatically searched and structural analogs of a putative Nr2e3 interacting compound with unknown function were collected. See FIGS. 2 and 4 for the structures of the compounds. The collected compounds were then screened in a physiologically relevant primary culture assay using intact retinas from postnatal day 12-13 (P12-13) C57BL/6 mice for suppression of Rho expression (See FIG. 6A). After a 2 day culture period with media containing DMSO or compounds at 1 μM, the retinas were collected and assessed Rho expression by qPCR. Rho was chosen because it is a well-described target of Nr2e3 in rod photoreceptors. […] This analysis also provided an initial structure-activity relationship.
Nr2e3 loss-of-function mutations lead to a reduction in rod gene expression. To determine whether the same was true for PR1 (FIG. 6D), explant cultures of P12 retina as above were treated and assayed for other rod photoreceptor genes. After 2 days in culture, PR1 decreased the expression of the rod specific genes Nrl, Nr2e3, Rho, Gnat1, and Pde6b compared to DMSO treatment by qPCR analysis (FIG. 6C). […] To determine the dose-response relationship between PR1 concentration and expression of rod genes, retinas from P12 mice were explanted in media containing DMSO or 0.1, 1, 5, or 10 μM PR1 for 2-3 days and assayed Nrl, Nr2e3, and Rho expression by qPCR. […] PR1 was tested to determine whether it could cause a reduction in Rho expression in human rod photoreceptors as well. Pairs of 113 day post-conception retinas were explanted in media with DMSO or 10 μM PR1 for 7 or 23 days. After 7 and 23 days in culture, PR1 decreased the expression of Rho compared to DMSO treatment (FIG. 6F), similar to the effect observed in mouse retinal explants.
Intact retinas without RPE from mice of various strains and ages as indicated were explanted on 0.4 μm pore tissue culture inserts (Millipore) as previously described (Ueki, Y., et al., P53 is required for the developmental restriction in Muller glial proliferation in mouse retina. Glia, 2012. 60(10): p. 1579-89; Ueki, Y., et al., A transient wave of BMP signaling in the retina is necessary for Muller glial differentiation. Development, 2015. 142(3): p. 533-43. Full media (DMEM/F12 (1:1) containing 1% dialyzed FBS, 1% Pen Strep, 0.3% D+ glucose, 2% B27, and 1% N2) changes were performed every other day and small molecules were used at 0.1 μM to 10 μM. Where indicated, EdU (Invitrogen) was included in the media at 5 μg/mL and visualized by staining with the Click-iT EdU Alexa Fluor kit (Thermo Fisher Scientific). For human retinal explant cultures, tissue from 113 day post-conception fetuses was obtained from the University of Washington Birth Defects Laboratory and explanted on 0.4 μm pore tissue culture inserts (Millipore) in media (Neurobasal A with 1% FBS, 1% Pen Strep, 1% N2, 1% B27) containing 10 μM Photoregulin1 or an equal volume of DMSO.
RNA was isolated using TRIzol (Invitrogen) and cDNA was synthesized using the iScript cDNA synthesis kit (Bio-Rad) following an intervening DNase treatment with RQ1 RNase-free DNase (Promega). SSO Fast (Bio-Rad) was used for quantitative real-time PCR. For analysis, values were normalized to Gapdh and ΔΔCt between DMSO and compound-treated samples was expressed as percent of DMSO treated controls (100*2^ΔΔCt). Two-way Student's t-tests were performed on ΔCt values.

Assay [2] relates to Thrb (Trβ2). The assay is described as follows: Cone gene expression, Thrb (FIG. 5).

As to `Cc1cc(C)cc(NC(=O)CCc2nc3sc4c(c3c(=O)[nH]2)CCC4)c1` [CA8801], the “relative rhodopsin (Rho) expression” value in assay [1] is recorded as “reducing rhodopsin expression”.
Regarding `Cc1cccc(C(=O)NCC(=O)Nc2ncc(C)s2)c1` [CA9513], the “relative rhodopsin (Rho) expression” value in assay [1] is “reducing rhodopsin expression”.
As to `Cc1cccc(C(=O)NC(C(=O)Nc2ncc(C)s2)C(C)C)c1` (stereo not shown) [CA95], in assay [1], the “relative rhodopsin (Rho) expression” value is reported as “reducing rhodopsin expression”. The “cone gene expression, Thrb (Trβ2)” value in assay [2] is on record as “increase”.
